According to patent publication US8735620B2, “Processes for preparing (E)-styrylbenzylsulfone compounds and uses thereof for treating proliferative disorders” (priority 2008, dated 2014):

Tests used:
2008 = assay: Tumor cell killing, 2008; type: cell-based, human; settings: 2008, Ovarian; read-out: Tumor cell killing (IC50) concentration
Method: (§1) Tissue Culture and Reagents: Paclitaxel was purchased from Sigma. Cell lines were purchased from ATCC. Cell lines were routinely grown in DMEM or RPM1 (CellGro) supplemented with 10% fetal bovine serum (Atlas) and 1 unit/mL penicillin-streptomycin (Gibco).
(§2) A number of tumor cell lines were tested using a dose response end point assay system. The cells were grown in either DMEM or RPMI supplemented with 10% fetal bovine serum and 1 unit/mL Penicillin-Streptomycin solution. The tumor cells were plated into 6 well dishes at a cell density of 1.0×10^5 cells/mL/well and compounds were added 24 h later at various concentrations. Cell counts were determined from duplicate wells after 96 h of treatment. The total number of viable cells was determined by trypan blue exclusion.

[1] = tested on: human vascular endothelial cells (HUVEC); assay: Cell cycle analysis by flow cytometry, normal cells; type: cell-based; settings: 20 nM, 24 hr intervals
Method: FIG. 2 Preferential tumor cell killing activity of 6aa. A. Cell Cycle analyses. Normal (HUVEC) and tumor cells (DU145) were treated with 20 nM concentration of 6aa and incubated in medium containing 10% fetal bovine serum. At 24 hr intervals, the cells were fixed, stained with propidium iodide and analyzed for their DNA content by flow Cytometry. B. Induction of apoptosis in normal (HUVEC) and tumor cells (DU145) was assessed by western blot analysis of cell lysates treated with 6aa for 24, 48 and 72 h. The Western blots were probed with anti-PARP antibodies to assess the cleavage of the protein.
Human prostate tumor cells, DU145 cells, and normal diploid human lung fibroblasts, HFL-1 cells, were grown in DMEM (Cellgro) supplemented with 10% fetal bovine serum and 1 unit/mL penicillin-streptomycin. The cells were plated onto 100 mm^2 dishes at a cell density of 1.0×10^6 cells/dish, and 24 h later, they were treated with 2.5 μM of the compound. The cells were harvested 24, 48 and 72 h after treatment. The cells were removed from the plate by trypsin digestion and combined with the non-attached cells found in the medium. The cell pellets were washed in phosphate buffered saline (PBS), and fixed in ice cold 70% ethanol for at least 24 h. […] The stained cells were then analyzed on a Becton-Dickinson (BD) (FACScan) flow cytometer and the data analyzed by cell cycle analysis software (Modfit, BD).

HCT-116 = assay: Tumor cell killing, HCT-116; type: cell-based, human; settings: HCT-116, COLO-RECTAL; read-out: Tumor cell killing (IC50) concentration
Method: as §1, §2

2008/17/4 = assay: Tumor cell killing, 2008/17/4; type: cell-based, human; settings: *2008/17/4, Resistant Ovarian (multi-drug resistant); read-out: Tumor cell killing (IC50) concentration
Method: as §1, §2

MIA-PaCa-2 cells = assay: Soft agar colony formation, MIA-PaCa-2; type: cell-based, human; settings: MIA-PaCa-2, dose dependent, three weeks
Method: FIG. 1 Anti-tumor effects of (E)-2,4,6-Trimethoxystyryl-3-Hydroxy-4-Methoxybenzyl Sulfone (6aa). A. 6aa inhibits the growth of parental (MES-SA) and Paclitaxel resistant (MES-SA/DX5) cell lines with equal efficiency. The parental uterine sarcoma cells and the MDR positive (MES-SA/DX5) cells were plated into 6 well dishes and treated with various concentrations of 6aa and Paclitaxel for 96 h. The number of viable cells from duplicate plates was determined by trypan blue exclusion. B. Soft Agar Assays. MIA-PaCa-2 cells (1.0×10^5) were plated in soft agar containing various concentrations of each compound in triplicates. After three weeks of growth, the plates were stained for 48 h using 0.05% nitroblue tetrazolium solution. Representative plates were photographed using an Olympus stereoscope mounted with a Sony digital camera system (DKC5000, Sony Inc).
The soft agar plates were prepared as described by Cosenza, et al (Cosenza, S. C. et al. In Cell Growth, Differentiation and Senescence, Studzinski, G. P., Ed.; Oxford University Press: 1999, 161-176.). Briefly, Noble bottom agar (0.8%) was plated onto 60 mm tissue culture plates. Exponentially growing MIA-PaCa-2 cells (1.0×10^5) were mixed with growth medium with various concentrations of each compound and mixed with Noble agar to a final concentration of 0.4%. Each concentration was plated in triplicate. The top agar was allowed to solidify and the plates were then incubated at 5% CO2 at 37° C. for 3 weeks. The plates were then stained with 0.05% nitroblue tetrazolium (NBT) solution and representative plates were photographed using an Olympus stereoscope mounted with a Sony digital camera system (DKC5000, Sony Inc).

BT20 = assay: Soft agar colony formation, BT20; type: cell-based, human; settings: BT20, dose dependent
[2] = tested on: BT20 human breast carcinoma xenograft; assay: Nude mouse xenograft assay
Method: Female athymic (NCr-nu/nu) mice were injected subcutaneously with 0.5-1×10^7 ER-negative human breast tumor cells (BT-20) in 0.2 mL of PBS and the tumors allowed to grow to a size of 100-150 mm^3 in size in about 14 days. The mice were then paired such that the pairs harbored equal sized tumors, which were then used to test the therapeutic effects of 6s and 6ab. A Of the pairs, the animals were treated with either 50 mg/kg 6s following a Q4D schedule or 25 mg/kg using a Q2D schedule or vehicle (DMSO) control. The tumor size was then measured on alternate days in two dimensions and the volume determined using either of the following equations: 1: V=(L×(S^2))π/6); where L is the longer and S is the shorter of the two measurements. B. 6ab was dissolved in PBS and was administered intravenously (50 mg/kg) through the tail vein on every alternate day. Tumor measurements were done as in materials and methods.
Female athymic (NCR-nu/nu, Taconic) nude mice were injected with 0.5-1.0×10^7 BT20 cells subcutaneously in the hind leg using a 1 mL tuberculin syringe equipped with a 271/2 gauge needle. Approximately 14 days later, mice were paired (N=8) and injected with 6ab or Phosphate buffered saline as the vehicle control. The intravenous injections were performed in the mouse tail vein using a 1 mL tuberculin syringe equipped with a 30 gauge needle. The animals were injected following a Q2D×3 schedule. Tumor measurements (two dimensions) were done three times per week using traceable digital vernier calipers (Fisher).

Structure (SMILES) | IC50 2008 | effect on cell cycle progression [1] | IC50 (HCT-116) | IC50 (2008/17/4) | growth of tumor cells in soft agar (MIA-PaCa-2 cells) | growth of tumor cells in soft agar (BT20) | fold increase in tumor volume ([2]; 25 mg/kg Q2D, IP, 22 day period, vehicle 5 fold) | final tumor volume ([2]; 25 mg/kg Q2D, IP, after 22 days, from 67.5 mm^3) | tolerability by body weights and physical observations ([2]; 50 mg/kg Q4D or 25 mg/kg Q2D, IP) | fold increase in average tumor volume ([2]; 50 mg/kg Q4D, IP, 22 day period, vehicle 5 fold) | final average tumor volume ([2]; 50 mg/kg Q4D, IP, after 22 days, from 74 mm^3) | tumor volume response of the majority of the mice ([2]; 8 mice per group)
COc1cc(OC)c(/C=C/S(=O)(=O)Cc2ccc(OC)c(O)c2)c(OC)c1 [6aa, (E)-2,4,6-Trimethoxystyryl-3-Hydroxy-4-Methoxybenzyl Sulfone] | 5 nM | block of their cell cycle progression in the G1 phase | 9 nM | 4 nM | complete inhibition of the growth of tumor cells | complete inhibition of the growth of tumor cells | – | – | – | – | – | –
COc1ccc(CS(=O)(=O)/C=C/c2c(OC)cc(OC)cc2OC)cc1 [6s, (E)-2,4,6-Trimethoxystyryl-4-Methoxybenzyl sulfone] | – | – | – | – | – | – | 2.5 fold | 165 mm^3 | well tolerated | 2.9 fold | 217 mm^3 | growth arrest or a gradual reduction in their tumor volume
